According to patent US5298621A, “Oligopeptide derivatives of ipoxantine endowed with immunomodulating activity and pharmaceutical compositions containing same” (Sigma-Tau Industrie Farmaceutiche Riunite S.p.A., priority 1990, dated 1994):

What was measured:
[1] = test system: Klebsiella oxytoca; experiment: Protective effect in immunodepressed mice infected with Klebsiella oxytoca; format: in vivo; settings: 25 mg/kg/day i.p. day -5 to -1, versus 44% mortality in the control group
Description: Test 2 Assessment of the protective effect induced by ST 657, ST 733, ST 754 and ST 789 on immunodepressed mice experimentally infected.
The immunosuppressor (cyclophosphamide) was administered i.p. in 0.2 mL of sterile saline, 100 mg/kg, 5 days before the infective challenge.
Compounds ST 733 and ST 754 (relevant data not shown in the tables) were administered i.p. (25 mg/kg/day) from day -5 (cyclophosphamide administration day) to day -1 (challenge at day 0) and tested utilizing Klebsiella oxytoca as infectious agent.

[2] = test system: splenocytes; experiment: "In vitro-ex vivo" mytogen (PHA)-induced splenocyte proliferation in mice
Description: Test 5 Assessment of the "in vitro-ex vivo" effect of ST 733 and ST 789 on the mytogen (PHA)-induced splenocyte proliferation in mice.
Male B6 D2 F1 mice (Charles River, Italy) aged 7-8 weeks (4 animals per group) were used.
PHA (phytohemagglutinine) active on T lymphocytes was used as mytogen. The mytogen was tested at three different concentrations (suboptimal, optimal, superoptimal): 0.5, 2 and 4 mcg/mL/well.
The compounds were administered i.p. 25 mg/kg/day from day -5 to day -1 (spleen excision at day 0).
The experimental procedure was conducted substantially as described by Kirchner et al, "Splenic suppressor macrophages induced in mice by injection of C. parvum", J. Immunol., 1975, 115:1212.
In particular, the cell suspensions obtained from the spleens of the animals of the same group were pooled and the cell concentration was adjusted to 5×10^6 cell/mL.
To volumes of 0.1 mL of each sample, equal volumes of the mytogen preparation were added so as to obtain the previously indicated final concentrations.
Each sample was prepared in triplicate in U-bottom microtiters. A control, to which 0.1 mL of medium was added instead of the mytogen, was also prepared. The control permits the extent of spontaneous proliferation in the absence of stimulation to be assessed.
The samples were incubated at 37° C. for 48 hours and then they were pulsed with 20 μL ^3 H-TdR (25 μCi/mL).
After 18 hours of further incubation, the cells were collected on filters and counted in a beta-counter to evaluate the incorporated radioactivity (in cpm).
The results for each sample are expressed by calculating the value of the area under the curve (AUC) obtained by plotting the values of the incorporated radioactivity (in cpm) versus the three concentrations of mytogen.
In addition to AUC, also the stimulation index (SI) is considered, that is defined as follows: [formula]

[3] = test system: responders (thymus of C57B1/6) induced by stimulators (spleen of DBA/2); experiment: "In vitro-ex vivo" mixed lymphocyte reaction (MLR); parameters: species or system mice; settings: for Body weight / Spleen weight / Thymus weight / ^3 H-TdR Incorporation (cpm ± S.E.) Non stimulated responders / ^3 H-TdR Incorporation (cpm ± S.E.) Stimulated responders / Thymocytes No. (× 10^7): 25 mg/kg/day i.p. from day -5 to day -1; for stimulator splenocytes-induced proliferation of responder thymocytes (in words): comparison with ST 789; for Thymocytes No. (× 10^7): pooled samples
Description: Test 8 Assessment of the "in vitro-ex vivo" effect of ST 733, ST 754 and ST 789 on the mixed lymphocyte reaction (MLR).
Male DBA/2 mice (Charles River, Italy) aged 8 weeks were used as "stimulators" (4 animals per group); male inbred C57 B1/6 mice (Charles River, Italy) were used as "responders" (4 animals per group).
The compounds were administered i.p. from day -5 to day -1 (thymus excision of "responders" at day 0) 25 mg/kg/day.
The experimental procedure that was used is described by Hudson, L. and Hay, F. C., Practical Immunology, Blackwell Scientific Publication 290 (1980).

[4] = test system: thymocytes; experiment: "In vitro-ex vivo" mytogen (PHA, Con A)-induced murine thymocite proliferation; parameters: species or system mice; settings: for Body weight / Thymus weight / Con A AUC (× 10^-3) / Con A I.S. (stimulation index) / PHA AUC (area under curve) / PHA I.S. (stimulation index) / Thymocytes No. (× 10^7): 25 mg/kg/day i.p. from day -4 to day -1; for Con A AUC (× 10^-3) / Con A I.S. (stimulation index): Con A-induced proliferation; for PHA AUC (area under curve) / PHA I.S. (stimulation index): PHA-induced proliferation; for extent of induced thymocyte proliferation (in words): comparison with ST 789; for Thymocytes No. (× 10^7): pooled samples
Description: Test 7 Assessment of the "in vitro-ex vivo" effect of ST 754, ST 785 and ST 789 on the mytogen (PHA, Con A)-induced murine thymocite proliferation.
The compounds were administered at the dose of 25 mg/kg/day from day -4 to day -1 (thymus excision at day 0). This test was conducted following the procedure described for test 5.
The Stimulation Index (S.I.) is as defined in test 5.

[5] = test system: DTH reaction vs. SRBC; experiment: Delayed type hypersensitivity test (DTH) vs. SRBC in mice; format: in vivo
Description: Test 6 Assessment of the effect of ST 785 and ST 789 on the delayed type hypersensitivity test (DTH).
Male B6 D2 F1 mice (Charles River, Italy) aged 6, 12 and 16 weeks (8 animals per group) were used.
The compounds were administered i.p., 25 mg/kg/day from day -3 to day +3 (immunization at day 0). Immunization was carried out by s.c. injection in the upper dorsal zone of the animals of 0.2 mL of SRBC (5×10^7 cells/mL).
Four days following the sensitizing injection, the animals were administered the challenge injection to bring about the delayed hypersensibility reaction. 50 μL of SRBC solution (2×10^9 cells/mL) were injected in the left hind foot-pad of the mice. The contralateral foot-pad received an equal volume of PBS. 24 hours after the challenge injection, the animals were sacrificed by cervical dislocation. The legs were amputated and the differences in weight between the left leg (treated with the challenge injection) and the contralateral leg were evaluated.
The mean of weight differences in the legs of the animals of the same experimental group was determined; the differences in the mean values calculated for each experimental group were processed using Student's "t" test (Biostatistics in Pharmacology, loc cit.).
The experimental procedure which was used is described by Miller, T. E. et al, (1973), Immunopotentiation with BCG. Modulation of the response to sheep red blood cells. J. Cancer Inst., 51:1669.

[6] = 25 mg/kg/day i.p. from day -5 to day -1

| Compound | mortality [1] | Body weight [3] [g] | Spleen weight [3] [mg] | Thymus weight [3] [mg] | ^3 H-TdR Incorporation (cpm ± S.E.) Non stimulated responders [3] [cpm] | ^3 H-TdR Incorporation (cpm ± S.E.) Stimulated responders [3] [cpm] | stimulator splenocytes-induced proliferation of responder thymocytes (in words) [3] | Thymocytes No. (× 10^7) [3] | Body weight [4] [g] | Thymus weight [4] [mg] | Con A AUC (× 10^-3) [4] | Con A I.S. (stimulation index) [4] | PHA AUC (area under curve) [4] | PHA I.S. (stimulation index) [4] | extent of induced thymocyte proliferation (in words) [4] | Thymocytes No. (× 10^7) [4] | also measured |
| --- | --- | --- | --- | --- | --- | --- | --- | --- | --- | --- | --- | --- | --- | --- | --- | --- | --- |
| C[C@H](NC(=O)OCCCCCn1cnc2c(=O)[nH]cnc21)C(=O)NCC(=O)[O-].[Na+] [ST 733, N-5-(ipoxantin-9-yl) pentyloxycarbonyl L-alanyl-glycine sodium salt] | no mortality at all | 21.8 ± 0.8 | 88.7 ± 13.6 | 61.5 ± 2.7 | 163.0 | 11187 | more potent than ST 789 | 15.5 × 10^7 |  |  |  |  |  |  |  |  | Body weight [2, 6]: 23.4 ± 0.2 g; Spleen weight [2, 6]: 74.0 ± 4.0 mg; Thymus weight [2, 6]: 75.0 ± 4.0 mg; PHA AUC (area under curve, cpm versus three mytogen concentrations) ([2]; PHA 0.5, 2 and 4 mcg/mL/well, 25 mg/kg/day i.p. from day -5 to day -1): 160 × 10^-3; PHA I.S. (stimulation index) ([2]; PHA-induced proliferation, 25 mg/kg/day i.p. from day -5 to day -1): 1.82; mytogen-induced proliferation versus the controls (in words) ([2]; PHA, 25 mg/kg/day i.p.): remarkable increase; Splenocytes No. (× 10^7) ([2]; pooled samples, 25 mg/kg/day i.p. from day -5 to day -1): 14.7 × 10^7 |
| C[C@H](NC(=O)OCCCCCn1cnc2c(=O)[nH]cnc21)C(=O)N[C@@H](CCCNC(=N)N)C(=O)O [ST 785, N-5-(ipoxantin-9-yl) pentyloxycarbonyl L-alanyl-arginine] |  |  |  |  |  |  |  |  | 22.5 ± 0.4 | 73.0 ± 2.7 | 79 × 10^-3 | 1.26 | 4421 | 1.58 | more potent than ST 789 | 15.1 × 10^7 | Mean difference in weight (mg ± S.E.) between treated and untreated foot-pads ([5]; 25 mg/kg/day i.p. from day -3 to day +3 respect to the immunization): 22.4 ± 3.79 mg; response to the DTH test (in words) ([5]; 25 mg/kg/day i.p., p≤0.01): remarkably reduce |
| N-5-(ipoxantin-9-yl) pentyloxycarbonyl L-(alpha) aspartyl L-arginine sodium salt [ST 754] | no mortality at all | 22.3 ± 0.5 | 81.2 ± 3.3 | 57.5 ± 8.4 | 89.2 | 11011 | more potent than ST 789 | 12.9 × 10^7 | 22.9 ± 0.5 | 74.0 ± 3.4 | 78 × 10^-3 | 1.25 | 3132 | 1.12 | more potent than ST 789 | 15.4 × 10^7 |  |
